Measured values taken from US20250122219A1 (priority 2023, published 2025).

Test: Cytotoxicity assay in MT-4 cells
Type: cell-based
Conditions: human; uninfected MT-4 cells, 5 days incubation, Cell Titer Glo; read-out: MT4 CC50
Experimental: Compounds were tested in a high-throughput 384-well assay format for their ability to inhibit the replication of HIV-1 (IIIB) in MT-4 cells. Compounds were serially diluted (1.3) in DMSO on 384-well polypropylene plates and further diluted 200-fold into complete RPMI media (10% FBS, 1% P/S) using the Biotek Micro Flow and Labcyte ECHO acoustic dispenser. Each plate contained up to 8 test compounds, with negative (No Drug Control) and 5 μM AZT positive controls. MT-4 cells were pre-infected with 10 μL of either RPMI (mock-infected) or a fresh 1:250 dilution of HIV-1 IIIB concentrated virus stock. Infected and uninfected MT-4 cells were further diluted in complete RPMI media and added to each plate using a Micro Flow dispenser. After 5 days incubation in a humidified and temperature controlled incubator (37° C.), Cell Titer Glo (Promega) was added to the assay plates and chemiluminescence read using an Envision plate-reader.
Assays were performed as above except uninfected MT-4 cells were added to each well containing test compound. In addition, […] puromycin was added to the last column of each assay plate to assess a base level of cytotoxicity.

| SMILES | CC50 at 5 days [µM] |
| --- | --- |
| CC1=NO[C@@]2(CC[C@H](C)N3C[C@H]2n2cc(C(=O)NCc4ccc(F)cc4F)c(=O)c(OCOC(=O)C(C)C)c2C3=O)C1 [Example 109, (((3′S,5S,7′R)-10′-((2,4-difluorobenzyl)carbamoyl)-3,3′-dimethyl-1′,11′-dioxo-1′,4′,5′,11′-tetrahydro-3′H,4H,7′H-spiro[isoxazole-5,6′-[2,7]methanopyrido[1,2-a][1,4]diazonin]-12′-yl)oxy)methyl isobutyrate] | 15.5 |
| COC(=O)Oc1c2n(cc(C(=O)NCc3ccc(F)cc3F)c1=O)[C@@H]1CN(C2=O)[C@@H](C)CC[C@]12CC(OC)=NO2 [Example 122, (03'S,5S,7′R)-10′-((2,4-difluorobenzyl)carbamoyl)-3-methoxy-3′-methyl-1′,11′-dioxo-1′,4′,5′,11′-tetrahydro-3′H,4H,7′H-spiro[isoxazole-5,6′-[2,7]methanopyrido[1,2-a][1,4]diazonin]-12′-yl methyl carbonate] | 19.8 |
| CCCOC(=O)Oc1c2n(cc(C(=O)NCc3ccc(F)cc3F)c1=O)[C@@H]1CN(C2=O)[C@@H](C)CC[C@]12CC(C)=NO2 [Example 125, (3′S,5S,7′R)-10′-((2,4-difluorobenzyl)carbamoyl)-3,3′-dimethyl-1′,11′-dioxo-1′,4′,5′,11′-tetrahydro-3′H,4H,7′H-spiro[isoxazole-5,6′-[2,7]methanopyrido[1,2-a][1,4]diazonin]-12′-yl propyl carbonate] | 18.5 |
| CCCOC(=O)Oc1c2n(cc(C(=O)NCc3ccc(F)cc3F)c1=O)[C@@H]1CN(C2=O)[C@@H](C)CC[C@]12CC(OC)=NO2 [Example 126, (3′S,5S,7′R)-10′-((2,4-difluorobenzyl)carbamoyl)-3-methoxy-3′-methyl-1′,11′-dioxo-1′,4′,5′,11′-tetrahydro-3′H,4H,7′H-spiro[isoxazole-5,6′-[2,7]methanopyrido[1,2-a][1,4]diazonin]-12′-yl propyl carbonate] | 21.9 |
| CC1=NO[C@@]2(CC[C@H](C)N3C[C@H]2n2cc(C(=O)NCc4ccc(F)cc4F)c(=O)c(OC(=O)OCCCCCCC(C)C)c2C3=O)C1 [Example 158, (3′S,5S,7′R)-10′-((2,4-difluorobenzyl)carbamoyl)-3,3′-dimethyl-1′,11′-dioxo-1′,4′,5′,11′-tetrahydro-3′H,4H,7′H-spiro[isoxazole-5,6′-[2,7]methanopyrido[1,2-a][1,4]diazonin]-12′-yl (7-methyloctyl) carbonate] | 16.8 |
| COC1=NO[C@@]2(CC[C@H](C)N3C[C@H]2n2cc(C(=O)NCc4ccc(F)cc4F)c(=O)c(OC(=O)OCCCCCCC(C)C)c2C3=O)C1 [Example 159, (3′S,5S,7′R)-10′-((2,4-difluorobenzyl)carbamoyl)-3-methoxy-3′-methyl-1′,11′-dioxo-1′,4′,5′,11′-tetrahydro-3′H,4H,7′H-spiro[isoxazole-5,6′-[2,7]methanopyrido[1,2-a][1,4]diazonin]-12′-yl (7-methyloctyl) carbonate] | 35.9 |
| CCCCCCCCCCCCCCOC(=O)OCOc1c2n(cc(C(=O)NCc3ccc(F)cc3F)c1=O)[C@@H]1CN(C2=O)[C@@H](C)CC[C@]12CC(C)=NO2 [Example 192, (((3′S,5S,7′R)-10′-((2,4-difluorobenzyl)carbamoyl)-3,3′-dimethyl-1′,11′-dioxo-1′,4′,5′,11′-tetrahydro-3′H,4H,7′H-spiro[isoxazole-5,6′-[2,7]methanopyrido[1,2-a][1,4]diazonin]-12′-yl)oxy)methyl tetradecyl carbonate] | ≥ 50 |
| CCCCCCCCCCCCCCOC(=O)OCOc1c2n(cc(C(=O)NCc3ccc(F)cc3F)c1=O)[C@@H]1CN(C2=O)[C@@H](C)CC[C@]12CC(OC)=NO2 [Example 193, (((3′S,5S,7′R)-10′-((2,4-difluorobenzyl)carbamoyl)-3-methoxy-3′-methyl-1′,11′-dioxo-1′,4′,5′,11′-tetrahydro-3′H,4H,7′H-spiro[isoxazole-5,6′-[2,7]methanopyrido[1,2-a][1,4]diazonin]-12′-yl)oxy)methyl tetradecyl carbonate] | ≥ 50 |
| CC1=NO[C@@]2(CC[C@H](C)N3C[C@H]2n2cc(C(=O)NCc4ccc(F)cc4F)c(=O)c(OCOC(=O)OCCCCCCC(C)C)c2C3=O)C1 [Example 209, (((3′S,5S,7′R)-10′-((2,4-difluorobenzyl)carbamoyl)-3,3′-dimethyl-1′,11′-dioxo-1′,4′,5′,11′-tetrahydro-3′H,4H,7′H-spiro[isoxazole-5,6′-[2,7]methanopyrido[1,2-a][1,4]diazonin]-12′-yl)oxy)methyl (7-methyloctyl) carbonate] | ≥ 50 |
| COC1=NO[C@@]2(CC[C@H](C)N3C[C@H]2n2cc(C(=O)NCc4ccc(F)cc4F)c(=O)c(OCOC(=O)OCCCCCCC(C)C)c2C3=O)C1 [Example 210, (((3′S,5S,7′R)-10′-((2,4-difluorobenzyl)carbamoyl)-3-methoxy-3′-methyl-1′,11′-dioxo-1′,4′,5′,11′-tetrahydro-3′H,4H,7′H-spiro[isoxazole-5,6′-[2,7]methanopyrido[1,2-a][1,4]diazonin]-12′-yl)oxy)methyl (7-methyloctyl) carbonate] | ≥ 50 |
| COC[C@H](C)OC(=O)OCOc1c2n(cc(C(=O)NCc3ccc(F)cc3F)c1=O)[C@@H]1CN(C2=O)[C@@H](C)CC[C@]12CC(C)=NO2 [Example 215, (((3′S,5S,7′R)-10′-((2,4-difluorobenzyl)carbamoyl)-3,3′-dimethyl-1′,11′-dioxo-1′,4′,5′,11′-tetrahydro-3′H,4H,7′H-spiro[isoxazole-5,6′-[2,7]methanopyrido[1,2-a][1,4]diazonin]-12′-yl)oxy)methyl ((S)-1-methoxypropan-2-yl) carbonate] | ≥ 50 |
| COC[C@H](C)OC(=O)OCOc1c2n(cc(C(=O)NCc3ccc(F)cc3F)c1=O)[C@@H]1CN(C2=O)[C@@H](C)CC[C@]12CC(OC)=NO2 [Example 216, (((3′S,5S,7′R)-10′-((2,4-difluorobenzyl)carbamoyl)-3-methoxy-3′-methyl-1′,11′-dioxo-1′,4′,5′,11′-tetrahydro-3′H,4H,7′H-spiro[isoxazole-5,6′-[2,7]methanopyrido[1,2-a][1,4]diazonin]-12′-yl)oxy)methyl ((S)-1-methoxypropan-2-yl) carbonate] | ≥ 50 |
| CO[C@H](C)COC(=O)OCOc1c2n(cc(C(=O)NCc3ccc(F)cc3F)c1=O)[C@@H]1CN(C2=O)[C@@H](C)CC[C@]12CC(C)=NO2 [Example 217, (((3′S,5S,7′R)-10′-((2,4-difluorobenzyl)carbamoyl)-3,3′-dimethyl-1′,11′-dioxo-1′,4′,5′,11′-tetrahydro-3′H,4H,7′H-spiro[isoxazole-5,6′-[2,7]methanopyrido[1,2-a][1,4]diazonin]-12′-yl)oxy)methyl ((R)-2-methoxypropyl) carbonate] | 24.6 |
| CO[C@@H](C)COC(=O)OCOc1c2n(cc(C(=O)NCc3ccc(F)cc3F)c1=O)[C@@H]1CN(C2=O)[C@@H](C)CC[C@]12CC(C)=NO2 [Example 219, (((3′S,5S,7′R)-10′-((2,4-difluorobenzyl)carbamoyl)-3,3′-dimethyl-1′,11′-dioxo-1′,4′,5′,11′-tetrahydro-3′H,4H,7′H-spiro[isoxazole-5,6′-[2,7]methanopyrido[1,2-a][1,4]diazonin]-12′-yl)oxy)methyl ((S)-2-methoxypropyl) carbonate] | 33.9 |
